Results: USRE33024E, “Bronchodilating 8-hydroxy-5-(1R)-1-hydroxy-2-(N-((1R)-2-(p-methoxyphenyl)-1-methylethyl) -amino)ethyl) carbostyril and intermediates thereof” (Tanabe Seiyaku Co. Ltd., priority 1983, dated 1989)
Where a name gives a salt, the structure may show the parent alone.

Columns and labels:
[1] = system: antigen-induced bronchoconstriction; experiment: Inhibitory effect on antigen-induced bronchoconstriction (Konzett-Rossler method); type: in vivo, guinea pig (Male Hartley); details: Cavia porcellus, iv; i.v. one minute before ovalbumin challenge (30 μg/kg, i.v.); passively sensitized guinea pigs
Description: Inhibitory effect on antigen-induced bronchoconstriction
Male Hartley guinea pigs (body weight: 280-520 g) were passively sensitized by intravenous injection of rabbit antiserum against ovalbumin (0.2 ml/100 g of body weight, PCA titer: ×1000), 24 hours later, the animals were anesthetized with α-chloralose (120 mg/kg, i.v.) and immobilized with gallamine triethiodide (5 mg/kg, i.v.) under artificial respiration. Lung volume changes were measured as overflow of air from the lung by the Konzett-Rossler method (cf. Arch. Exp. Pathol. Pharmakol., 195, 71 (1940)). The test compound was administered intravenously to the animals one minute before said animals were challenged with ovalbumin (30 μg/kg, i.v.). The ED50 (i.e., the dose of the test compound which is necessary to produce 50% reduction of antigen-induced bronchoconstruction) was estimated from the dose-response curve.

[2] = in vivo; details: mouse, iv
Description: (§1) A test compound was dissolved in 5% glucose solution, and the test compound solution (0.2 ml/10 g of body weight) was administered intravenously to Male ddY strain mice (body weight: 25-28 g). The LD50 of the test compound was estimated by the Up and Down method.

[3] = system: isolated tracheal muscle preparations of Male Hartley guinea pigs; experiment: Bronchodilating activity: relaxation of histamine-induced contraction of isolated tracheal muscle preparations (Magnus' method); set-up: species or system guinea pig (Male Hartley)
Description: Isolated tracheal muscle preparations of Male Hartley guinea pigs (body weight: 430-645 g) were used to estimate the bronchodilating activity of a test compound according to Magnus' method. The preparation was suspended in an organ bath filled with 20 ml of Tyrode's solution (37° C.), and said solution was continuously bubbled with air. Histamine 2HCl was added to the bath (final concentration; 1×10^-5 g/ml) and the test compound was added thereto about 15 minutes after the addition of histamine 2HCl. Tension changes in the tracheal smooth muscle were recorded isometrically with a force-displacement transducer. Molar conentration of the test compound which produced 50% relaxation of the histamine-induced tracheal contraction were estimated from the concentration-response curve, and the potency ratio of the test compound to Isoproterenol was calculated therefrom.

[4] = system: Male ddY strain mice; experiment: Acute toxicity (Up and Down method); details: mouse, in vivo
Description: as §1

Compound | ED50 [1] [mg/kg] | LD50 [2] [mg/kg] | bronchodilating activity, times as strong as Isoproterenol ([3]; isolated tracheal chains of guinea pigs, versus Isoproterenol) [times] | bronchodilating activity, times as strong as procaterol ([3]; isolated tracheal chains of guinea pigs, versus procaterol) | Potency ratio (to Isoproterenol) ([3]; from molar concentration giving 50% relaxation of histamine-induced tracheal contraction, histamine 2HCl 1×10^-5 g/ml, Tyrode's solution 37° C.) | selectivity ratio [2] | toxicity (in words) [4]
COc1ccc(C[C@@H](C)NC[C@H](O)c2ccc(O)c3[nH]c(=O)ccc23)cc1 (relative stereo) [Comp. No. 2, 8-hydroxy-5-{1-hydroxy-2-[N-(2-(p-methoxyphenyl)-1-methylethyl)amino]ethyl}carbotyril (α-isomer) hydrochloride] | 0.00018 | 91.3 |  |  |  |  | 
COc1ccc(C[C@@H](C)NC[C@H](O)c2ccc(O)c3[nH]c(=O)ccc23)cc1.Cl [Comp. No. 1, 8-hydroxy-5-{(1R)-1-hydroxy-2-[N-((1R)-2-(p-methoxyphenyl)-1-methylethyl)amino]ethyl}carbostyril hydrochloride] |  | 84.6 | ~100 | about 10 times |  |  | 
CCC(NC(C)C)C(O)c1ccc(O)c2[nH]c(=O)ccc12 (stereo not shown) [Procaterol, 8-hydroxy-5-[1-hydroxy-2-(isopropylamino)butyl]carbostyril hydrochloride hemihydrate, reference compound] | 0.00064 | 70.3 |  |  | 17 | 110000 | 
COc1ccc(CC(C)NCC(O)c2ccc(O)c3[nH]c(=O)ccc23)cc1 (stereo not shown) [compound (I)] |  |  |  |  |  |  | considerably low
